Data reported in patent US20220363665A1, “QUINOLINE COMPOUNDS FOR THE TREATMENT OF AUTOIMMUNE DISEASE” (Hoffmann-La Roche Inc., priority 2019, published 2022).
pIC50: −log10 of the molar value. Converted amounts (≈) assume the structure as drawn.

Assays:
human TLR9 = molecular target: T1, human TLR9 (Homo sapiens, UniProt Q9NR96); experiment: HEK293-Blue-hTLR-9 cells assay (SEAP reporter, ODN2006 stimulation); type: cell-based; conditions: HEK293-Blue-hTLR9 cells, ODN2006, 20 hrs
T1 construct: host or cells: HEK293 (HEK-Blue hTLR9)
T1 sequence (Q9NR96 26-1032): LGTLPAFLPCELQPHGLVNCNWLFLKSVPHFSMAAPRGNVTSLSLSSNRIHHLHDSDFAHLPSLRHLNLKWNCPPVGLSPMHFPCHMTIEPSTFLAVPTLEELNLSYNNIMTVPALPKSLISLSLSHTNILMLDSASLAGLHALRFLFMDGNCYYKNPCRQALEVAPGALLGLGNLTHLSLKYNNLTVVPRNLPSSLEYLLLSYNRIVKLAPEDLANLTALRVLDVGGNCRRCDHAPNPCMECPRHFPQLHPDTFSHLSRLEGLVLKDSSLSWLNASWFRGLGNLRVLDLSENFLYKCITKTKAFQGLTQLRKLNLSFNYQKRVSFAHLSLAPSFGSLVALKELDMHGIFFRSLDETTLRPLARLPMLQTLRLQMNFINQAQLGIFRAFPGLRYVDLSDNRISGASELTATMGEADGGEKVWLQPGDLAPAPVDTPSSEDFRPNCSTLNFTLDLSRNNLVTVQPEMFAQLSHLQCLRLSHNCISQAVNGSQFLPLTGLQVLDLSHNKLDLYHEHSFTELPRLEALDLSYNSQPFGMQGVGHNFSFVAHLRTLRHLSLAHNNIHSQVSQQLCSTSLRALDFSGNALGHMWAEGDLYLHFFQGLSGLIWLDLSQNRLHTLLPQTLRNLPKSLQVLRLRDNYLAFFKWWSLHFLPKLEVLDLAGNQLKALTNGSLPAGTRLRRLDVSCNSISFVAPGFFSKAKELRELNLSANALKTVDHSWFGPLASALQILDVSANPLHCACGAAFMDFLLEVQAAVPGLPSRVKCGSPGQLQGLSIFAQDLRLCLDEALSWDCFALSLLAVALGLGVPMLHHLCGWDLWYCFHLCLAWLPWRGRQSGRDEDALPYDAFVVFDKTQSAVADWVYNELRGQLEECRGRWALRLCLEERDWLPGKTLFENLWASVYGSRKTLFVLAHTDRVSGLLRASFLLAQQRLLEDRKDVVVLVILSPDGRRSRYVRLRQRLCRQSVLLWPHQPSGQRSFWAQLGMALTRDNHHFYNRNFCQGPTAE
Protocol: The following tests were carried out in order to determine the activity of the compounds of formula (I) in HEK293-Blue-hTLR-7/8/9 cells assay.
HEK293-Blue-hTLR-9 Cells Assay:
A stable HEK293-Blue-hTLR-9 cell line was purchased from InvivoGen (Cat. #. hkb-htlr9, San Diego, Calif., USA). These cells were originally designed for studying the stimulation of human TLR9 by monitoring the activation of NF-κB. A SEAP (secreted embryonic alkaline phosphatase) reporter gene was placed under the control of the […] minimal promoter fused to five NF-κB and AP-1-binding sites. The SEAP was induced by activating NF-κB and AP-1 via stimulating HEK-Blue hTLR9 cells with TLR9 ligands. Therefore the reporter expression was declined by TLR9 antagonist under the stimulation of a ligand, such as ODN2006 (Cat. #: tlrl-2006-1, Invivogen, San Diego, Calif., USA), for incubation of 20 hrs. The cell culture supernatant SEAP reporter activity was determined using QUANTI-Blue™ kit (Cat. #: rep-qbl, Invivogen, San Diego, Calif., USA) at a wavelength of 640 nm, a detection medium that turns purple or blue in the presence of alkaline phosphatase.
HEK293-Blue-hTLR9 cells were incubated at a density of […] cells/mL in a volume of 170 μL, in a 96-well plate in Dulbecco's Modified Eagle's medium (DMEM) containing 4.5 g/L glucose, 50 U/mL penicillin, […], […], 2 mM L-glutamine, 10% (v/v) heat-inactivated fetal bovine serum with addition of 20 μL test compound in a serial dilution in the presence of final DMSO at 1% and 10 μL of 20 uM ODN2006 in above DMEM, perform incubation under 37° C. in a CO2 incubator for 20 hrs. Then 20 μL of the supernatant from each well was incubated with 180 μL Quanti-blue substrate solution at 37° C. for 2 hrs and the absorbance was read at 620˜655 nm using a spectrophotometer. The signalling pathway that TLR9 activation leads to downstream NF-κB activation has been widely accepted, and therefore similar reporter assay was modified for evaluating TLR9 antagonist.

LYSA solubility assay = type: physicochemical; conditions: 0.05 M phosphate buffer, pH 6.5, aqueous buffer, thermodynamic from solid
Protocol: LYSA study is used to determine the aqueous solubility of tested compounds. Samples are prepared in duplicate from 10 mM DMSO stock solution. After evaporation of DMSO with a centrifugal vacuum evaporator, compounds are dissolved in a 0.05 M phosphate buffer (pH 6.5), stirred for one hr and shaken for two hrs. After one night, the solutions are filtered using a microtiter filter plate. Then the filtrate and its 1/10 dilution are analyzed by HPLC-UV. In addition, a four-point calibration curve is prepared from the 10 mM stock solutions and used for the solubility determination of the compounds. The results are in μg/mL. In case the percentage of sample measured in solution after evaporation divided by the calculated maximum of sample amount is bigger than 80%, the solubility is reported as bigger than this value.

SMILES	pIC50 (human TLR9)	solubility thermodynamic (LYSA solubility assay)
C[C@@H]1CN(c2ccc(C(F)(F)F)c3ncccc23)C[C@H](C(=O)NC2CC3COCC(C2)N3)O1 (stereo partly drawn) [Example 33, (2R,6R)-6-methyl-N-(3-oxa-9-azabicyclo[3.3.1]nonan-7-yl)-4-[8-(trifluoromethyl)-5-quinolyl]morpholine-2-carboxamide]	4.63	350 µg/mL (≈ 754 µM)
C[C@@H]1CN(c2ccc(C(F)(F)F)c3ncccc23)C[C@H](C(=O)N2CCC3(CCNC3)C2)O1 (stereo partly drawn) [Example 36]	4.91	> 595 µg/mL
C[C@@H]1CN(c2ccc(C(F)(F)F)c3ncccc23)C[C@H](C(=O)NC2CC3CNCC(C3)C2)O1 (stereo partly drawn) [Example 37, (2R,6R)-N-(3-azabicyclo[3.3.1]nonan-7-yl)-6-methyl-4-[8-(trifluoromethyl)-5-quinolyl]morpholine-2-carboxamide]	5.11	> 660 µg/mL
C[C@@H]1CN(c2ccc(I)c3ncccc23)C[C@H](C(=O)NC2CCN(C)CC2)O1 [Example 38, (2R,6R)-4-(8-iodo-5-quinolyl)-6-methyl-N-(1-methyl-4-piperidyl)morpholine-2-carboxamide]	5.22	> 650 µg/mL
C[C@@H]1CN(c2ccc(I)c3ncccc23)C[C@H](C(=O)NCC2CN(C)CCO2)O1 (stereo partly drawn) [Example 39, (2R,6R)-4-(8-iodo-5-quinolyl)-6-methyl-N-[(4-methylmorpholin-2-yl)methyl]morpholine-2-carboxamide]	4.45	> 625 µg/mL
C[C@@H]1CN(c2ccc(I)c3ncccc23)C[C@H](C(=O)NC2CNCC2F)O1 (stereo partly drawn) [Example 40, cis-(2R,6R)-N-[4-fluoropyrrolidin-3-yl]-4-(8-iodo-5-quinolyl)-6-methyl-morpholine-2-carboxamide]	4.65	555 µg/mL (≈ 1150 µM)
C[C@@H]1CN(c2ccc(Br)c3ncccc23)C[C@H](C(=O)NC2CNCC2F)O1 (stereo partly drawn) [Example 41, cis-(2R,6R)-4-(8-bromo-5-quinolyl)-N-[4-fluoropyrrolidin-3-yl]-6-methyl-morpholine-2-carboxamide]	4.63	> 675 µg/mL
C[C@@H]1CN(c2ccc(Br)c3ncccc23)C[C@H](C(=O)NC2CCN(C)CC2)O1 [Example 42, (2R,6R)-4-(8-bromo-5-quinolyl)-6-methyl-N-(1-methyl-4-piperidyl)morpholine-2-carboxamide]	4.97	> 550 µg/mL
C#Cc1ccc(N2C[C@@H](C)O[C@@H](C(=O)NC3CCN(C)CC3)C2)c2cccnc12 [Example 43, (2R,6R)-4-(8-ethynyl-5-quinolyl)-6-methyl-N-(1-methyl-4-piperidyl)morpholine-2-carboxamide]	4.91	> 560 µg/mL
C[C@@H]1CN(c2ccc(C(F)(F)F)c3ncccc23)C[C@H](C(=O)NC2C[C@H]3C[C@@H]2CN3)O1 (stereo partly drawn) [Example 44]	4.80	> 600 µg/mL
C[C@@H]1CN(c2ccc(C(F)(F)F)c3ncccc23)C[C@H](C(=O)NC2C3CCCC2CNC3)O1 (stereo partly drawn) [Example 45, (2R,6R)-N-(3-azabicyclo[3.3.1]nonan-9-yl)-6-methyl-4-[8-(trifluoromethyl)-5-quinolyl]morpholine-2-carboxamide]	4.94	> 660 µg/mL
C[C@@H]1CN(c2ccc(C(F)(F)F)c3ncccc23)C[C@H](C(=O)NCC2CNCCO2)O1 (stereo partly drawn) [Example 48, (2R,6R)-6-methyl-N-(morpholin-2-ylmethyl)-4-[8-(trifluoromethyl)-5-quinolyl]morpholine-2-carboxamide]	4.93	> 625 µg/mL
